Test results published in article PMC6199744, “Development of Chemical Proteomics for the Folateome and Analysis of the Kinetoplastid Folateome” (ACS Infectious Diseases, 2018).
Read-outs that look alike come from different tables or passages of the source.

Legend:
Type in all cases: binding
[1] = biological target: T1, HeLa cell extract proteins (Homo sapiens, UniProt Q9UJX4)
T1 construct: endogenous in cells; host or cells: HeLa cell extract

[2] = biological target: T2, HeLa cell extract proteins (Homo sapiens, UniProt Q5R3I4)
T2 construct: endogenous in cells; host or cells: HeLa cell extract
T2 sequence (Q5R3I4 whole entry): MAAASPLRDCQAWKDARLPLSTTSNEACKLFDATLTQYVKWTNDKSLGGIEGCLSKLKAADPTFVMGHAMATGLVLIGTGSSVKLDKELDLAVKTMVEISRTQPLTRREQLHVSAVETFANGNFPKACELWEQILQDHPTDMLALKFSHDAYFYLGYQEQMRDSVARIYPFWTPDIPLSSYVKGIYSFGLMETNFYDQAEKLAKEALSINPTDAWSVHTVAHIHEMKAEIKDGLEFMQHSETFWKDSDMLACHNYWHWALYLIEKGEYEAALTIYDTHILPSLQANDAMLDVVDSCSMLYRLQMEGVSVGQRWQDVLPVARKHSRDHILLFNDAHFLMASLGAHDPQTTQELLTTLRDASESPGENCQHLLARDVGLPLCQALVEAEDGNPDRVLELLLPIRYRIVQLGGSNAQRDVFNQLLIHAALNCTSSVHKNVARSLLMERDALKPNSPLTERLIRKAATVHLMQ

[3] = biological target: T3, HeLa cell extract proteins (Homo sapiens, UniProt Q02790)
T3 construct: endogenous in cells; host or cells: HeLa cell extract
T3 sequence (Q02790 1-459): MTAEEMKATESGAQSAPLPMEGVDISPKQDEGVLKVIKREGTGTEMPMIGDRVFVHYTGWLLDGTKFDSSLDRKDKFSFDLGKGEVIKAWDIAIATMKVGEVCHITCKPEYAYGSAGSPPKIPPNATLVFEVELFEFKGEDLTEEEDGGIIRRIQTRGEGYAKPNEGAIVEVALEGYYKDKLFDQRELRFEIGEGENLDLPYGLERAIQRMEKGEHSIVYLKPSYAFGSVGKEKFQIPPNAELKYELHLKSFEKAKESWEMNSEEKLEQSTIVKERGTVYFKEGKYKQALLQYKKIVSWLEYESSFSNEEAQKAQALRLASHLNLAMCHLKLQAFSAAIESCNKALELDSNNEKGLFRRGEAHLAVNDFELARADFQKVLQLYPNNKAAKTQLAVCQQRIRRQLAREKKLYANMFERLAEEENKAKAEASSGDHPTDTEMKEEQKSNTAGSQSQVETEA

[4] = biological target: T4, HeLa cell extract proteins (Homo sapiens, UniProt P20618)
T4 construct: endogenous in cells; host or cells: HeLa cell extract
T4 sequence (P20618 29-241): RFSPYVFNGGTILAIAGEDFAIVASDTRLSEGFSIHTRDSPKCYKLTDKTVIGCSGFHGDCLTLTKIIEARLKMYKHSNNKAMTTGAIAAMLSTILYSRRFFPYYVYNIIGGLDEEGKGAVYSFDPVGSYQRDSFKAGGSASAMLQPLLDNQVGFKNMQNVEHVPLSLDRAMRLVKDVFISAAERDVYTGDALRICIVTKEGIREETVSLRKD

[5] = biological target: T5, HeLa cell extract proteins (Homo sapiens, UniProt Q6PJT7)
T5 construct: endogenous in cells; host or cells: HeLa cell extract
T5 sequence (Q6PJT7 1-736): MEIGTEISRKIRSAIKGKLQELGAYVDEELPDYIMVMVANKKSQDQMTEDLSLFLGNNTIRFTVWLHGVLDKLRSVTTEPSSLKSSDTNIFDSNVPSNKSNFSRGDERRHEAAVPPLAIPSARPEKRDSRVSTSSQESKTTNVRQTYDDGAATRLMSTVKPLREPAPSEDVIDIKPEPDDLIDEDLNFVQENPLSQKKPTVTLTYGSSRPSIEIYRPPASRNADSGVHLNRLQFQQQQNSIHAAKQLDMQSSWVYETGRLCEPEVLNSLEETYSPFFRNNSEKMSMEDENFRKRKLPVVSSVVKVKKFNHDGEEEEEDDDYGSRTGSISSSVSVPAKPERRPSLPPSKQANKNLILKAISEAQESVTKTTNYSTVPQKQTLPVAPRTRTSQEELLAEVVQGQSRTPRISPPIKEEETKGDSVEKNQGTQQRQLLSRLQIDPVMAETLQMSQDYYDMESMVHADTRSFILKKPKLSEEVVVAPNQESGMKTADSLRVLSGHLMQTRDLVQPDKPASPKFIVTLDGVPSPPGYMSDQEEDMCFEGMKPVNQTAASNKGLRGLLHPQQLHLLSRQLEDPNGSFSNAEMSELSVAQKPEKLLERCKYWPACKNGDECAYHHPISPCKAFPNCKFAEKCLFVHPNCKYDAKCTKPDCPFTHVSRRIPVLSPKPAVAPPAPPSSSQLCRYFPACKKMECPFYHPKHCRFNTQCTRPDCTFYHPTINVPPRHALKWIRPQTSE

[6] = biological target: T6, HeLa cell extract proteins (Homo sapiens, UniProt Q01518)
T6 construct: endogenous in cells; host or cells: HeLa cell extract
T6 sequence (Q01518 whole entry): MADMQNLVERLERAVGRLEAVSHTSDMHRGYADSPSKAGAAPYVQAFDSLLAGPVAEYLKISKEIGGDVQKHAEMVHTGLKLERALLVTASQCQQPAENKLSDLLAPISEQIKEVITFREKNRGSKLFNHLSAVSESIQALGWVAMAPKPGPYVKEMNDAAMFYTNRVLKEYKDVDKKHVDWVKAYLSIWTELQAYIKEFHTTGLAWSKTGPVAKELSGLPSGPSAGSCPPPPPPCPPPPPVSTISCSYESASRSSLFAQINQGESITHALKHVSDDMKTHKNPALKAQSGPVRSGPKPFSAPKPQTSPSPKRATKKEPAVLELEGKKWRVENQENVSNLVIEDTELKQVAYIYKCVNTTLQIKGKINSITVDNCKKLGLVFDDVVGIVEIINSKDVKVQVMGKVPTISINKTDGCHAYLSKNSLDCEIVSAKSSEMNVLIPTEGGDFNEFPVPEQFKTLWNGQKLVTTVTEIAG

[7] = biological target: T7, HeLa cell extract proteins (Homo sapiens, UniProt P46977)
T7 construct: endogenous in cells; host or cells: HeLa cell extract
T7 sequence (P46977 1-705): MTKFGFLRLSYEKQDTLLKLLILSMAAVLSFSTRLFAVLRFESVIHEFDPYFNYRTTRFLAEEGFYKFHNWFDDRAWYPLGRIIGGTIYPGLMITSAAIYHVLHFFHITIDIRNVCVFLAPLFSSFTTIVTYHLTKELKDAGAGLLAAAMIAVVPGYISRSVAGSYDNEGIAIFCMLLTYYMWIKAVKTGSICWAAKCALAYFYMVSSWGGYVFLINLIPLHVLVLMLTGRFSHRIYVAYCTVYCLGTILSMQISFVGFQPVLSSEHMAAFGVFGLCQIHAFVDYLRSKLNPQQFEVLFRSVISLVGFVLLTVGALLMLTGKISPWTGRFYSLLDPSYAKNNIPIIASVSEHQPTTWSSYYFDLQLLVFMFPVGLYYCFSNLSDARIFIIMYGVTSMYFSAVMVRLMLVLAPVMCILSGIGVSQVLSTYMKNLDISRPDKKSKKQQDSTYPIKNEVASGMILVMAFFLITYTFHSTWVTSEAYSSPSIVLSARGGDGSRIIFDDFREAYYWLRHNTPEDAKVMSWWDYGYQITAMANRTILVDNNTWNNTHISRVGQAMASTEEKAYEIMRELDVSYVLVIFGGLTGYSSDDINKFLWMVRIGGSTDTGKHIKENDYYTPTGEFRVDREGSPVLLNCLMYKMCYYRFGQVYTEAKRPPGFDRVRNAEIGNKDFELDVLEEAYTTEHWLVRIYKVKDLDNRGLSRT

[8] = biological target: T8, HeLa cell extract proteins (Homo sapiens, UniProt P31943)
T8 construct: endogenous in cells; host or cells: HeLa cell extract
T8 sequence (P31943 1-449): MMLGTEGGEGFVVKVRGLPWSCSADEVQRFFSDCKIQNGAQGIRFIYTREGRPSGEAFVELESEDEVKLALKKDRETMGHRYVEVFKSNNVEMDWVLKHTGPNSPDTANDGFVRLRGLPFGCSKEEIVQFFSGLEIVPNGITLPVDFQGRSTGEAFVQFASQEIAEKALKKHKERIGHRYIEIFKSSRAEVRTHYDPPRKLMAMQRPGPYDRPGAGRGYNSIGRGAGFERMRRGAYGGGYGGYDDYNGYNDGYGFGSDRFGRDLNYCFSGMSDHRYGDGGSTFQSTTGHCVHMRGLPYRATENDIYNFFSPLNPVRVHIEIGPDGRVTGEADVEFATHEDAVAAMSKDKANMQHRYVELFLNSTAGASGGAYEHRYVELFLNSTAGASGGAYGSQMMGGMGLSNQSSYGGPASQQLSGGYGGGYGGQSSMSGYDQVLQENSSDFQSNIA

[9] = HeLa, protein FKBP4 (FK506-BINDING PROTEIN 4.)
[10] = HeLa, protein TTC38 (HYPOTHETICAL PROTEIN LOC55020)

T1 sequence (Q9UJX4 whole entry): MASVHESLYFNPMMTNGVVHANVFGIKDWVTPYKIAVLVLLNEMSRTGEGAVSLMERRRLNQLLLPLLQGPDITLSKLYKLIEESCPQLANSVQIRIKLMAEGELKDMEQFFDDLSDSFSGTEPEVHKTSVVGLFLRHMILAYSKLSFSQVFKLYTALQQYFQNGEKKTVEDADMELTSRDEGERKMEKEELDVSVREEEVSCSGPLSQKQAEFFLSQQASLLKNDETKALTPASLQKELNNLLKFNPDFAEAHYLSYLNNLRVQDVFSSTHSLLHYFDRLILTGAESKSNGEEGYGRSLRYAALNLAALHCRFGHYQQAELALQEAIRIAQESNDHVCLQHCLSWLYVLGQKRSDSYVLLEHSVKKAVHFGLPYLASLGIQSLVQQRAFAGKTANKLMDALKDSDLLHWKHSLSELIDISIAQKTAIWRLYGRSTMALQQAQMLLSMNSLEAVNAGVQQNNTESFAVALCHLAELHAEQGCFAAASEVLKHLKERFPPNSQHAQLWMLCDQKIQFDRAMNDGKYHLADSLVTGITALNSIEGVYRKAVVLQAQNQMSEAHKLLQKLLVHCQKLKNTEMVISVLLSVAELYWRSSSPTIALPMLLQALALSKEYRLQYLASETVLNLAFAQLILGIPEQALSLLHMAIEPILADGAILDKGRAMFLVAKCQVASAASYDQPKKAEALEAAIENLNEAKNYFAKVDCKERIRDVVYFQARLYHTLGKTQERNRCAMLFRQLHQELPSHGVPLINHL

Row | Compound | fold changes relative to vehicle control ([1]; HeLa, captured protein ANAPC5) | fold changes relative to vehicle control ([3]; HeLa, protein FKBP4) | fold changes relative to vehicle control ([4]; HeLa, protein PSMB1) | fold changes relative to vehicle control ([5]; HeLa, captured protein ZC3H14) | fold changes relative to vehicle control ([6]; HeLa, protein CAP1) | fold changes relative to vehicle control ([7]; HeLa, protein STT3A) | fold changes relative to vehicle control ([8]; HeLa, captured protein HNRNPH1) | fold changes relative to vehicle control ([1]; captured protein ANAPC5, HeLa) | fold changes relative to vehicle control ([2]; HeLa, protein TTC38) | fold changes relative to vehicle control [3, 9] [fold] | fold changes relative to vehicle control ([4]; protein PSMB1, HeLa) | fold changes relative to vehicle control ([5]; captured protein ZC3H14, HeLa) | fold changes relative to vehicle control ([6]; protein CAP1, HeLa) | fold changes relative to vehicle control ([8]; HeLa, protein HNRNPH1) | also measured
1 | Nc1nc2c(c(=O)[nH]1)N(C=O)C(CNc1ccc(C(=O)N[C@@H](CCC(=O)O)C(=O)O)cc1)CN2 (some centres unmarked) [LEU, leucovorin] | 1.07 | 1.01 | 0.96 | 1 | 1 | 1.1 | 0.96 |  |  |  |  |  |  |  | fold changes relative to vehicle control ([2]; HeLa, protein TTC38 (HY[…] LOC55020)): 1.03
2 | Nc1nc2[nH]cc(CCc3ccc(C(=O)N[C@@H](CCC(=O)O)C(=O)O)cc3)c2c(=O)[nH]1 [PTX, pemetrexed] |  |  |  |  |  |  |  |  |  |  |  |  |  |  | fold changes relative to vehicle control [1]: 1.07; fold changes relative to vehicle control [2]: 0.93; fold changes relative to vehicle control [3]: 1.18; fold changes relative to vehicle control [4]: 0.78; fold changes relative to vehicle control [5]: 0.95; fold changes relative to vehicle control [6]: 1.12; fold changes relative to vehicle control [7]: 0.89; fold changes relative to vehicle control [8]: 0.86
3 | CCCCCCOc1ccc(Cc2cnc(N)nc2N)cc1 [compound 1] |  |  |  |  |  | 0.96 |  | 1.06 | 1 | 1.48 | 1.05 | 0.83 | 1.19 | 0.96 | 
4 | CCCCCCOc1cccc(Cc2cnc(N)nc2N)c1 [compound 2] |  |  |  |  |  | 1.08 |  | 1 | 0.68 | 2.28 | 1.28 | 0.94 | 2.26 | 1.02 | 
5 | Nc1nc2cccc(-c3ccccc3)c2n1Cc1ccc(Cl)c(Cl)c1 [compound 3] |  |  |  |  |  | 1.36 |  | 1.07 | 1 | 1.05 | 0.92 | 0.96 | 0.73 | 1 | 
6 | NCCOCCOCC(=O)Nc1nc2ncc(CNc3ccc(C(=O)NC(CCC(=O)O)C(=O)O)cc3)nc2c(=O)[nH]1 (centres unmarked) [compound 6] | 1.05 | 1.4 | 0.94 | 0.99 | 1.26 | 0.96 | 0.84 |  |  |  |  |  |  |  | fold changes relative to vehicle control [2, 10]: 0.89
7 | NCCCNc1ccc(C(=O)NC(CCC(=O)O)C(=O)O)cc1 (centres unmarked) [compound 7] | 1.1 | 1.05 | 0.86 | 1.04 | 0.94 | 0.93 | 0.92 |  |  |  |  |  |  |  | fold changes relative to vehicle control [2, 10]: 0.99
